# Read-outs that look alike come from different tables or passages of the source.
# Experiments:
# [1] = Stability of working solutions of PB1 and PB2; type: physicochemical
# Method: All the above solutions were stored at −70°C.
# [2] = Stability of PB1 and PB2 in human whole blood at room temperature or 4°C; settings: clinical TDM whole blood, plasma by HPLC-MS/MS
# Method: Moreover, the stability of PB1 and PB2 in whole blood was determined using redundant TDM whole-blood samples. A clinical whole-blood sample was obtained and immediately divided into 10 aliquots and placed at room temperature (25°C) or 4°C. At the designated time point, one of the aliquots was removed and immediately centrifuged to obtain 100 μL of a plasma sample. Then, all plasma samples were stored at −70°C until further analysis. Two parallel samples were tested at each storage condition, and the results were expressed as the percentage ratios of PB1 or PB2 concentrations measured at different time points to the initial PB1 or PB2 concentration.
# [3] = Stability of PB1 and PB2 in human plasma under different storage conditions; settings: human plasma, n = 3
# Method: The stock solutions of the calibrators and quality control (QC) samples should be prepared separately in the same way. The PB stock solution for calibrators and QC samples was prepared in water (1% FA) at 400.48 μg/mL for PB1 and 40.84 μg/mL for PB2. Consequently, working solutions for construction of calibrators and QC were prepared by serially diluting the stock solution with a 1% aqueous solution of FA. The concentrations of the working solutions for calibrators were 10.01, 30.03, 50.05, 100.12, 150.18, and 200.24 μg/mL for PB1 and 1.02, 3.06, 5.10, 10.21, 15.31, and 20.42 μg/mL for PB2. The concentrations of working solutions for QCs were prepared at 20.02 μg/mL (LQC), 90.11 μg/mL (MQC), and 180.22 μg/mL (HQC) for PB1 and 2.04 μg/mL (LQC), 9.18 μg/mL (MQC), and 18.36 μg/mL (HQC) for PB2. The working solution of IS (10.00 μg/mL) was prepared using methanol. All the above solutions were stored at −70°C. The calibrators and QC samples were obtained by spiking 90 μL of blank plasma with 10 μL of working solution at the corresponding concentration. The standard curves were in the range of 1.00–20.02 μg/mL and 0.10–2.04 μg/mL for PB1 and PB2, respectively.
# Typically, 100 μL of the plasma sample was mixed with 10 μL IS working solution, and then, 300 μL 0.1% FA in methanol was added to the sample for protein precipitation. The mixture was vortexed for 3 min and centrifuged in an Eppendorf 5415D microcentrifuge (Eppendorf, Hamburg, Germany) at 11,000 g rpm for 10 min. Subsequently, 200 μL of the supernatant was transferred into a clean polypropylene tube and diluted with 150 μL of 0.1% FA in water. The mixture solution was vortexed for 3 min and centrifuged at 11,000 rpm for 10 min using the same centrifuge. Finally, 200 μL of the supernatant was transferred into an injection bottle, and 10 μL was injected into the HPLC–MS/MS for analysis.
# The stability of the working solutions of PB1 and PB2 was evaluated. The short-term stability and long-term stability of PB1 and PB2 in human plasma were evaluated under the following conditions: placed at room temperature or 4°C for 24 h, frozen and thawed three times, and stored at −70°C for 85 days. The stability evaluation was conducted for both LQC and HQC concentrations.
substance,measurement,setting,value
polymyxin B1 [PB1],Stability of working solutions,"[1]; working solutions in 1% aqueous formic acid at LQC and HQC concentrations, stored at −70°C",remained stable after storage at −70 °C for up to 7 days but not beyond 10 days
same,Concentration after storage in human blood,"[2]; 4°C, 0 h (initial), parallel sample 1",4.69 µg/mL
same,Concentration after storage in human blood,"[2]; 4°C, 0 h (initial), parallel sample 2",4.72 µg/mL
same,Concentration after storage in human blood,"[2]; 4°C, 0.5 h, parallel sample 1",4.29 µg/mL
same,Concentration after storage in human blood,"[2]; 4°C, 0.5 h, parallel sample 2",4.12 µg/mL
same,Concentration after storage in human blood,"[2]; 4°C, 1 h, parallel sample 1",4.42 µg/mL
same,Concentration after storage in human blood,"[2]; 4°C, 1 h, parallel sample 2",4.35 µg/mL
same,Concentration after storage in human blood,"[2]; 4°C, 2 h, parallel sample 1",5.1 µg/mL
same,Concentration after storage in human blood,"[2]; 4°C, 2 h, parallel sample 2",4.89 µg/mL
same,Concentration after storage in human blood,"[2]; 4°C, 3 h, parallel sample 1",5.25 µg/mL
same,Concentration after storage in human blood,"[2]; 4°C, 3 h, parallel sample 2",5.32 µg/mL
same,Concentration after storage in human blood,"[2]; 4°C, 4 h, parallel sample 1",5.13 µg/mL
same,Concentration after storage in human blood,"[2]; 4°C, 4 h, parallel sample 2",4.95 µg/mL
same,Concentration after storage in human blood,"[2]; 4°C, 5 h, parallel sample 1",4.82 µg/mL
same,Concentration after storage in human blood,"[2]; 4°C, 5 h, parallel sample 2",4.82 µg/mL
same,Concentration after storage in human blood,"[2]; 4°C, 8 h, parallel sample 1",4.46 µg/mL
same,Concentration after storage in human blood,"[2]; 4°C, 8 h, parallel sample 2",4.85 µg/mL
same,Concentration after storage in human blood,"[2]; 4°C, 12 h, parallel sample 1",4.56 µg/mL
same,Concentration after storage in human blood,"[2]; 4°C, 12 h, parallel sample 2",4.68 µg/mL
same,Concentration after storage in human blood,"[2]; 4°C, 24 h, parallel sample 1",4.69 µg/mL
same,Concentration after storage in human blood,"[2]; 4°C, 24 h, parallel sample 2",5.28 µg/mL
same,Concentration after storage in human blood,"[2]; room temperature (25°C), 0 h (initial), parallel sample 1",6.89 µg/mL
same,Concentration after storage in human blood,"[2]; room temperature (25°C), 0 h (initial), parallel sample 2",6.66 µg/mL
same,Concentration after storage in human blood,"[2]; room temperature (25°C), 0.5 h, parallel sample 1",6.83 µg/mL
same,Concentration after storage in human blood,"[2]; room temperature (25°C), 0.5 h, parallel sample 2",6.63 µg/mL
same,Concentration after storage in human blood,"[2]; room temperature (25°C), 1 h, parallel sample 1",6.13 µg/mL
same,Concentration after storage in human blood,"[2]; room temperature (25°C), 1 h, parallel sample 2",6.13 µg/mL
same,Concentration after storage in human blood,"[2]; room temperature (25°C), 2 h, parallel sample 1",6.7 µg/mL
same,Concentration after storage in human blood,"[2]; room temperature (25°C), 2 h, parallel sample 2",6.15 µg/mL
same,Concentration after storage in human blood,"[2]; room temperature (25°C), 3 h, parallel sample 1",7.16 µg/mL
same,Concentration after storage in human blood,"[2]; room temperature (25°C), 3 h, parallel sample 2",6.78 µg/mL
same,Concentration after storage in human blood,"[2]; room temperature (25°C), 4 h, parallel sample 1",6.42 µg/mL
same,Concentration after storage in human blood,"[2]; room temperature (25°C), 4 h, parallel sample 2",6.42 µg/mL
same,Concentration after storage in human blood,"[2]; room temperature (25°C), 5 h, parallel sample 1",6.89 µg/mL
same,Concentration after storage in human blood,"[2]; room temperature (25°C), 5 h, parallel sample 2",6.71 µg/mL
same,Concentration after storage in human blood,"[2]; room temperature (25°C), 8 h, parallel sample 1",6.97 µg/mL
same,Concentration after storage in human blood,"[2]; room temperature (25°C), 8 h, parallel sample 2",6.65 µg/mL
same,Concentration after storage in human blood,"[2]; room temperature (25°C), 12 h, parallel sample 1",7.95 µg/mL
same,Concentration after storage in human blood,"[2]; room temperature (25°C), 12 h, parallel sample 2",8.19 µg/mL
same,Concentration after storage in human blood,"[2]; room temperature (25°C), 24 h, parallel sample 1",7.05 µg/mL
same,Concentration after storage in human blood,"[2]; room temperature (25°C), 24 h, parallel sample 2",6.72 µg/mL
same,"Stability in human plasma, RE","[3]; 4°C for 24 h, target PB1 2.00 / PB2 0.20 μg/mL (LQC)",+3.25%
same,"Stability in human plasma, RE","[3]; 4°C for 24 h, target PB1 9.01 / PB2 0.92 μg/mL (MQC)",−7.38%
same,"Stability in human plasma, RE","[3]; 4°C for 24 h, target PB1 18.02 / PB2 1.84 μg/mL (HQC)",−3.87%
same,"Stability in human plasma, RE","[3]; room temp. for 24 h, target PB1 2.00 / PB2 0.20 μg/mL (LQC)",−11.99%
same,"Stability in human plasma, RE","[3]; room temp. for 24 h, target PB1 9.01 / PB2 0.92 μg/mL (MQC)",+5.18%
same,"Stability in human plasma, RE","[3]; room temp. for 24 h, target PB1 18.02 / PB2 1.84 μg/mL (HQC)",+6.19%
same,"Stability in human plasma, RE","[3]; three freeze–thaw cycles, target PB1 2.00 / PB2 0.20 μg/mL (LQC)",−4.15%
same,"Stability in human plasma, RE","[3]; three freeze–thaw cycles, target PB1 9.01 / PB2 0.92 μg/mL (MQC)",+3.09%
same,"Stability in human plasma, RE","[3]; three freeze–thaw cycles, target PB1 18.02 / PB2 1.84 μg/mL (HQC)",+1.01%
same,"Stability in human plasma, RE","[3]; −70°C for 85 days, target PB1 2.00 / PB2 0.20 μg/mL (LQC)",−2.50%
same,"Stability in human plasma, RE","[3]; −70°C for 85 days, target PB1 9.01 / PB2 0.92 μg/mL (MQC)",+0.10%
same,"Stability in human plasma, RE","[3]; −70°C for 85 days, target PB1 18.02 / PB2 1.84 μg/mL (HQC)",+1.95%
polymyxin B2 [PB2],Stability of working solutions,[1],remained stable after storage at −70 °C for up to 7 days but not beyond 10 days
